Patent publication US20250101062A1, “ANTIMICROBIAL PEPTIDES” (Board of Regents of the University of Nebraska, priority 2023, published 2025)
Where no end group is shown, it is not given here.

Assays:
MRSA USA300 [1] = assay: Killing kinetics; type: cell-based, Staphylococcus aureus; details: 2×MIC
Protocol: MRSA USA300 was grown to the exponential phase (OD600˜0.3) in MHB. The culture was diluted to OD600 0.001 (˜10^5 CFU/mL). One milliliter of bacterial suspension was then mixed with LL-37mini or daptomycin at 2×MIC and incubated at 37° C. After 15, 30, 60, 90, and 120 minutes of incubation, 50 μL was taken and serially diluted with 1×PBS. Then, 50 μL of the diluted suspension was plated on mannitol salt agar plates (NEOGEN, MI). The plates were incubated overnight at 37° C. for bacterial CFU determination the next day.
For bacterial killing kinetics study, MRSA USA300 and P. aeruginosa E411-17 was grown to the exponential phase (OD600˜0.3) in MHB. The culture was diluted to OD600 0.001 (˜10^5 CFU/mL). One milliliter of bacterial suspension was then mixed with the peptide, colistin or daptomycin at 4×MIC and incubated at 37° C. After 15, 30, 60, 90, and 120 minutes incubation, 50 μL was taken and serially diluted with 1×PBS. Then, 50 μL of the diluted suspension was plated on Mannitol Salt Agar (MRSA USA300) or Cetrimide Agar (P. aeruginosa E411-17) plates (NEOGEN, MI). The plates were incubated overnight at 37° C. for bacterial CFU count the next day.

[2] = Effect of MHB dilution on antibacterial activity of a panel of antibiotics; type: cell-based; details: MHB from 100 to 12.5%
[3] = test system: human keratinocyte HaCaT cells; assay: Cell viability assay (MTS); type: cell-based
Protocol: Human keratinocyte HaCaT cells were grown in DMEM/high glucose (Hyclone, UT) containing 10% fetal bovine serum (Mediatech, Corning, Manassas, VA). […] The mixture was incubated at 37° C. in 5% CO2 for 24 hours.
HepG2 cells were cultured in ATCC-formulated Eagle's Minimum Essential Medium with 10% FBS. A549 cells were grown in ATCC-formulated F-12K Medium containing 10% FBS.

MRSA USA300 [4] = assay: Inhibition of bacterial attachment; type: cell-based, Staphylococcus aureus; details: Example 1, 4× and 8×MIC
Protocol: Inhibition of Bacterial Attachment. Bacterial attachment is the initial step for biofilm formation. For this experiment, an overnight culture of MRSA USA300 was grown overnight in TSB media to an optical density (OD600) of ˜1.0. […] The plates were then incubated at 37° C. for 1 hour. Next, the medium was aspirated and washed with 1×PBS, and 200 μL of TSB containing XTT 10% [2,3-bis(2-methyloxy-4-nitro-5-sulfophenyl)-2H-tertazolium-5-carboxanilide](ATCC, VA) solution was added. After incubation at 37° C. for 2 hours, absorbance was read at 450 nm using a ChroMate™ microtiter plate reader. TSB containing 10% XTT served as a blank, while bacterial culture treated with water served as a positive control. Percentages of viable cells in biofilms were plotted by assuming 100% growth in water treated control.
Bacterial attachment was conducted (Mishra, et al. (2016) ACS Med. Chem. Lett., 77(1):117-121; Duplantier, et al. (2013) Front. Immunol., 4: 143). In brief, an overnight culture of MRSA USA300 or P. aeruginosa E411-17 was grown overnight in TSB media to an optical density (OD600) of ˜1.0. […] The plates were then incubated at 37° C. for 1 hour. […] After incubation at 37° C. for 2 hours, absorbance was read at 450 nm using a ChroMate® microtiter plate reader. […]

E. coli E423-17 = assay: Membrane permeabilization (propidium iodide); type: cell-based, Escherichia coli; details: Example 1, 1×MIC

Compound	time to kill (MRSA USA300 [1]) [h]	change in MIC with dilution of MHB [2]	time at which CFU was not detected (killing) (MRSA USA300 [1]) [min]	toxicity to human HaCaT skin cells [3]	anti-attachment ability (MRSA USA300 [4])	membrane permeabilization (E. coli E423-17)
CCCCCCCCCC(=O)N[C@@H](Cc1c[nH]c2ccccc12)C(=O)N[C@H](CC(N)=O)C(=O)N[C@@H](CC(=O)O)C(=O)N[C@@H]1C(=O)NCC(=O)N[C@@H](CCCN)C(=O)N[C@@H](CC(=O)O)C(=O)N[C@H](C)C(=O)N[C@@H](CC(=O)O)C(=O)NCC(=O)N[C@H](CO)C(=O)N[C@@H]([C@H](C)CC(=O)O)C(=O)N[C@@H](CC(=O)c2ccccc2N)C(=O)O[C@@H]1C [Daptomycin]	2	essentially no changes				
RRWWRWWR-NH2 [W543]			120	least toxic	did not show anti-attachment ability	30 minute delay in membrane permeabilization
